In article PMC11649521 (The Journal of Physiology, 2024):

What was measured:
Test in all cases: cell-based
Settings in all cases: read-out: % block at 1 μM PhTx
[1] = biological target: B/α (type-B iGluR/Neto-α; GluRIIB/C/D/E + Neto-α) (Drosophila melanogaster, UniProt Q0KI42+Q7KSB1+Q9VMP3+Q9VPV3)
[2] = biological target: A/β (type-A iGluR/Neto-β; GluRIIA/C/D/E + Neto-β) (Drosophila melanogaster, UniProt Q0KI42+Q7KSB1+Q9VMP4+Q9VPV3)
[3] = biological target: B/β (type-B iGluR/Neto-β; GluRIIB/C/D/E + Neto-β) (Drosophila melanogaster, UniProt Q0KI42+Q7KSB1+Q9VMP3+Q9VPV3)

A/β (type-A iGluR/Neto-β; GluRIIA/C/D/E + Neto-β), sequence (Q9VMP4 22-907): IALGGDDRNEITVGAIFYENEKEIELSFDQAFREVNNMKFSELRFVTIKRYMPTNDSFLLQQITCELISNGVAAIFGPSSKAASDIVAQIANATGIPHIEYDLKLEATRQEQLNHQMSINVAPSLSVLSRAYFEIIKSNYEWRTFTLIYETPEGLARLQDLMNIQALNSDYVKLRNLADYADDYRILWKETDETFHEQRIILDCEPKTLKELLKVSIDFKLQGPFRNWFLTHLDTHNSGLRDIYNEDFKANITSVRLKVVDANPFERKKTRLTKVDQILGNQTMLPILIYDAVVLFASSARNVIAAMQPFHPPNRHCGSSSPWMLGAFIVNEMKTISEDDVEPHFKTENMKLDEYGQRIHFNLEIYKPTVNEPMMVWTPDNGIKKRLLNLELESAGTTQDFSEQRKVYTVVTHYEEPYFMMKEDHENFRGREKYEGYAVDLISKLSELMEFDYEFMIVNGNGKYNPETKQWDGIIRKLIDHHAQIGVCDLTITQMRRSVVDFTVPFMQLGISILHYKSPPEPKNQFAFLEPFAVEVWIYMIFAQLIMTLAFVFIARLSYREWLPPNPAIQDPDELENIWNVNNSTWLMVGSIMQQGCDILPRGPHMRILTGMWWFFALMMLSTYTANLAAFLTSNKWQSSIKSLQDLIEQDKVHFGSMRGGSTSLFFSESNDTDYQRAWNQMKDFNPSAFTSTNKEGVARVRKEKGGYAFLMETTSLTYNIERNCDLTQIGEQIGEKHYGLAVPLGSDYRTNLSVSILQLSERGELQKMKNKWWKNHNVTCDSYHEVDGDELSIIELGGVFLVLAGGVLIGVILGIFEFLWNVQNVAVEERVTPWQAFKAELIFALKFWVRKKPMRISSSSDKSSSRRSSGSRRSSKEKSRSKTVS
A/β (type-A iGluR/Neto-β; GluRIIA/C/D/E + Neto-β), sequence (Q9VPV3 23-940): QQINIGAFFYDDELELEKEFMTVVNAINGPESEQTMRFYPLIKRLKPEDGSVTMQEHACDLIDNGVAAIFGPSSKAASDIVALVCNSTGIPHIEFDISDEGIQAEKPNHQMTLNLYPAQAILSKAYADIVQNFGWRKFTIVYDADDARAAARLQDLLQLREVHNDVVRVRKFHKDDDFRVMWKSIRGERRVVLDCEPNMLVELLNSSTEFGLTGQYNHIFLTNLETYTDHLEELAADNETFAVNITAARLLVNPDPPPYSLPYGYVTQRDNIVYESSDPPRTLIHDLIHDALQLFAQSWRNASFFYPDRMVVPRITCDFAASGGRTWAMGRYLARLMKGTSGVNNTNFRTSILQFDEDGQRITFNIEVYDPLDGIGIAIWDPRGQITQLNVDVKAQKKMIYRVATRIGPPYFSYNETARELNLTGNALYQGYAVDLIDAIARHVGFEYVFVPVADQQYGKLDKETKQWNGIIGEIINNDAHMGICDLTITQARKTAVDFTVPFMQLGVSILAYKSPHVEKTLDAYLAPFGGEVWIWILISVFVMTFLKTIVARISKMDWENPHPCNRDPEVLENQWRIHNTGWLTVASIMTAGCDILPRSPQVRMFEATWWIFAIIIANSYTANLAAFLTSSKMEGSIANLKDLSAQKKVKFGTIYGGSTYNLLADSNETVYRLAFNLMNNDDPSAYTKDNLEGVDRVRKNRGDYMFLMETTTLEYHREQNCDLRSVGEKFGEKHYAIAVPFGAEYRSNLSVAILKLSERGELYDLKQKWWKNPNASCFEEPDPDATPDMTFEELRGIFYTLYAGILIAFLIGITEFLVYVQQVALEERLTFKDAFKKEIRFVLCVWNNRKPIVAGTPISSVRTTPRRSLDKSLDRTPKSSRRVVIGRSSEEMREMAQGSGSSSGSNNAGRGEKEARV
A/β (type-A iGluR/Neto-β; GluRIIA/C/D/E + Neto-β), sequence (Q7KSB1 19-902): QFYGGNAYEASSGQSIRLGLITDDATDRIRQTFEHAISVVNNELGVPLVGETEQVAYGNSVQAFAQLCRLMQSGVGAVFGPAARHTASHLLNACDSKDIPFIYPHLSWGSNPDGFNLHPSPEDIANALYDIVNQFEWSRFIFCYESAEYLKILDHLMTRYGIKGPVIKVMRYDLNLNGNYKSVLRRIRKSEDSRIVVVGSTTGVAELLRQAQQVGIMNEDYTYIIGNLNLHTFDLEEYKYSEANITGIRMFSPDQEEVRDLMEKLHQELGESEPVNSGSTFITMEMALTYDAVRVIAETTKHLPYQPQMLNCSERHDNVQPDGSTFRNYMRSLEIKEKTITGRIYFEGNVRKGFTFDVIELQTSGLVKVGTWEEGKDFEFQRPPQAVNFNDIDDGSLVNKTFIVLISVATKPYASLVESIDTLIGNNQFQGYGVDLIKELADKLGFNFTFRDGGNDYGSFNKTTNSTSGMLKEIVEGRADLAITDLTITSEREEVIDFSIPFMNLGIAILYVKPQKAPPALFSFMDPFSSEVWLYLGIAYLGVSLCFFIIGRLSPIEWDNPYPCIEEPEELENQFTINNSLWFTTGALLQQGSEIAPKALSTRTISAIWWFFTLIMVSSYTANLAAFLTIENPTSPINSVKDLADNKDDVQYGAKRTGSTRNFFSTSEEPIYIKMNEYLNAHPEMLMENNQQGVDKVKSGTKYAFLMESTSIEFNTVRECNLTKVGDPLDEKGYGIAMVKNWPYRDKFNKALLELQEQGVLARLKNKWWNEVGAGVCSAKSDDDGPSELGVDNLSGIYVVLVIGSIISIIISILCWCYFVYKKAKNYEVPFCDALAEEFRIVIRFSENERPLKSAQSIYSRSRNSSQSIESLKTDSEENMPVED
A/β (type-A iGluR/Neto-β; GluRIIA/C/D/E + Neto-β), sequence (Q0KI42 23-897): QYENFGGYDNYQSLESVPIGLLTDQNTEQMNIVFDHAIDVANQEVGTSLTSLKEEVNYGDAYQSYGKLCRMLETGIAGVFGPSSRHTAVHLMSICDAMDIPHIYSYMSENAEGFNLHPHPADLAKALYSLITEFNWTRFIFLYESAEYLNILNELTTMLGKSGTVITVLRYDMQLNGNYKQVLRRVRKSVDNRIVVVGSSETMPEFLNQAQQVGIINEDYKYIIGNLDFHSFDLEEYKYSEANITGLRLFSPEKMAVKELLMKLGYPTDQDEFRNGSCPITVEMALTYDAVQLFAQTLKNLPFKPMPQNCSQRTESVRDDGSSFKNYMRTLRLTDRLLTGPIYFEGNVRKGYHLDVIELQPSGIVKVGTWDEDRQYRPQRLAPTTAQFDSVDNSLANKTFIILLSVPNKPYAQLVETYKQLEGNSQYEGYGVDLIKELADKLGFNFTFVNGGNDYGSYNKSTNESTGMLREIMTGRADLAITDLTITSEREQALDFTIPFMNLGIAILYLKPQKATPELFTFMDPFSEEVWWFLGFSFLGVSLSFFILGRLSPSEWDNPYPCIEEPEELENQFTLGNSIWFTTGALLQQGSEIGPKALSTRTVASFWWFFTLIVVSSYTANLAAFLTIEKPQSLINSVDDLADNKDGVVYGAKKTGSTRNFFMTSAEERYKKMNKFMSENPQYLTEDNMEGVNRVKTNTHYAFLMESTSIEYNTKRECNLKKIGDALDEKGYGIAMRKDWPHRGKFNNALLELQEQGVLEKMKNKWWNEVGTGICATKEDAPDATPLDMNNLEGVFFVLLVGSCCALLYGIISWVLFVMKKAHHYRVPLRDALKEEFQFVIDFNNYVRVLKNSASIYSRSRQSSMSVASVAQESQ
A/β (type-A iGluR/Neto-β; GluRIIA/C/D/E + Neto-β), sequence (X2JDL4 127-822 partner limits assumed): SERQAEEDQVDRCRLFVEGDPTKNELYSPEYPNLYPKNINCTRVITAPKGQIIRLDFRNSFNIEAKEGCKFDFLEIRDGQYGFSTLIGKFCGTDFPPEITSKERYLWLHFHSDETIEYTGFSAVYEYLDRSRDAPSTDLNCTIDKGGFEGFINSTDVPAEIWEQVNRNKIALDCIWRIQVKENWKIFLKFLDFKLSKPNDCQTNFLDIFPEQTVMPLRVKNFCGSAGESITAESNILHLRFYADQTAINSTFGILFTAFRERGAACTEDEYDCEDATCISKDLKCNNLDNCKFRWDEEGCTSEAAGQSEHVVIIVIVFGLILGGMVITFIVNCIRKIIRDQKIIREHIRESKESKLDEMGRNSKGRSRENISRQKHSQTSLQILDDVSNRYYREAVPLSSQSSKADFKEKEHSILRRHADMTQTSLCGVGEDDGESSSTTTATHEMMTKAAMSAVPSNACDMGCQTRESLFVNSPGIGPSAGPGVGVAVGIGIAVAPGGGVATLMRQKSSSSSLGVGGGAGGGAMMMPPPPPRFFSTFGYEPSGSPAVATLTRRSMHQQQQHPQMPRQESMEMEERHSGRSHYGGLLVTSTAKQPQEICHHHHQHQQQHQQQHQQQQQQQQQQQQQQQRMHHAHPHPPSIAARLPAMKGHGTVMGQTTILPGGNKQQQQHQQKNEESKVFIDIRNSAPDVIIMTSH

For `CCCC(=O)N[C@@H](Cc1ccc(O)cc1)C(=O)NCCCNCCCCNCCCN` [PhTx, philanthotoxin‐343], the inhibition at 1 µM [1] was 83.3 ± 5.07%, the inhibition at 1 µM [2] was 98.8 ± 0.67% and the inhibition at 1 µM [3] was 74.7 ± 1.72%.
